In data set [1] the test system is Cryptococcus neoformans_BNCC225501. Kind of data set: microbe, parasite or virus in culture. As to conditions: oxidized QS18 compared with fluconazole. On the procedure: To achieve a final cell concentration of 2 × 10^6 CFU/mL, mid-log phase cultures were diluted with a Yeast and Mold (YM) broth and then put to 96-well plates with two-fold serially diluted peptides (from 0.1 to 89.8 µM) in a 1:1 ratio.

Data set [2] can be described thus: In vivo acute toxicity test. As to conditions: mouse, in vivo, ip; mice, single intraperitoneal dose, observed up to 72 h. On the procedure:
(§1) The peptide was administered in decreasing dosages to the different groups of mice. The concentration was lowered after three repeats if death was immediate, and 6 mice were injected if no death occurred. Following injection, mice were examined visually for any indications of toxicity, and the times at which mice died were recorded at 12/24/48/60 and 72 h. The following signs were used to assess toxicity: hunched back, ruffled fur, poor motility, and total immobility resulting in death.

Data set [3] deals with C57BL/6J male mice. In words: In vivo acute toxicity test. On the procedure:
as §1

Data set [4] relates to chymotrypsin. As to conditions: peptide 1 mg/mL, peptide:enzyme 250:1, 5 mM CaCl2, 50 mM Tris-HCl pH 7.4, 37 °C, time points 0 to 12 h, SDS-PAGE bands. On the procedure:
(§2) The mixture was heated for 10 min at 95 °C to halt enzymatic reaction. A solution of 20 µL of the SDS-PAGE loading buffer (5×) was added to 80 µL of the sample, mixed by vortexing and heated for 5 min at 95 °C. SDS-PAGE analysis was performed using Omni-PAGE™Precast HEPES-Tris Gels. LL37 and colistin antibiotics were used as controls.

In data set [5] the test system is trypsin. As to conditions: peptide 1 mg/mL, peptide:enzyme 250:1, 5 mM CaCl2, 50 mM Tris-HCl pH 7.4, 37 °C, time points 0 to 12 h, SDS-PAGE bands. On the procedure:
as §2

Data set [6] relates to C. neoformans. Kind of data set: Membrane potential assay, DiSC3(5) dye. The class given is cell-based, Cryptococcus neoformans. The settings on record: 1×, 2×, 4× and 8× the MIC, up to 40 min, ex/em 622/670 nm. On the procedure: An overnight culture of C. neoformans cells was washed thrice and re-suspended in the HEPES buffer (with 5 mM of HEPES, 20 mM of glucose and 0.1 M of KCl, pH 7.5) to achieve a cell density of 10^8 CFU/mL. The fungal suspension was then incubated with 10 µM of DiSC3(5) for 30 min at 37 °C in the dark. […] PBS was added as the negative control and amphotericin B as the positive control. The negative control PBS-treated wells were used to establish baseline fluorescence. Fluorescence intensity was measured and recorded over time for up to 40 min at excitation/emission wavelengths of 622/670 nm. An increase in fluorescence indicated membrane depolarization, which implies the disruption of membrane integrity.

Data set [7] relates to C. neoformans BNCC225501 biofilm. In words: Biofilm eradication assay, crystal violet. Type of data set: cell-based, Cryptococcus neoformans. On the procedure: Evaluation of the peptide’s ability to eradicate C. neoformans BNCC225501 biofilms was performed by culturing and harvesting the fungal cells as described in the biofilm inhibition assay above. Incubation of the fungal solution (1 × 10^6 CFU/mL in YPDA media) was conducted in 96-well plates for 48 h at 37 °C. […] Excess stain was washed off with PBS, and 95% ethanol (100 µL) was added. Using a microplate reader, absorbance was determined at 600 nm for quantification of the percentage of biofilm eradication.

Data set [8] concerns C. neoformans BNCC225501 biofilms. In words: Two-photon laser scanning microscopy of biofilms, FDA/PI. Type of data set: cell-based, Cryptococcus neoformans. The settings on record: 0.5× to 8 × the MIC, 24 h at 37 °C. On the procedure:
Fluorescein diacetate (FDA) and Propidium iodide (PI) dyes were utilized to stain live and dead cells, respectively. The fungi were cultured in YPDA broth media at 37 °C to the mid-logarithmic phase. Fungal cells were centrifuged at 3500 rpm for 5 min and then washed thrice with normal saline (0.9% sodium chloride). The fungal suspension was diluted to 1 × 10^9 CFU/mL in YPDA broth media, and, then, 500 µL was added to wells in a 24-well plate. Incubation was performed for 24 h at 37 °C; then, wells were washed thrice with PBS. […] Normal saline was added to the negative control group. […] After incubation, the non-adherent cells were washed with PBS, 250 µL (10 µg/mL) of FDA dye (Solarbio, Beijing, China) was added to each well and left in the dark for 20 min, and, then, 250 µL (5 µg/mL) of PI dye (Solarbio, Beijing, China) was added and co-stained in the dark for 10 min. Microscopy observation was performed utilizing the TPLSM (A1MP+, Nikon, Tokyo, Japan) at 555 nm and 488 nm excitations for PI and FDA, respectively.

The subject of data set [9] is C. neoformans. In words: Histopathological examination of infected mice. Type of data set: in vivo, C57BL/6J female mice. The settings on record: 4 mg/kg i.p., lung, liver, spleen and kidney, 12 h post-treatment. On the procedure: Mice systemic infection and the treatment model were performed to assess the dissemination of fungi to target organs as described by with little modifications. C57BL/6J female mice 20 ± 2 g were immunocompromised through the intraperitoneal injection of 150 mg/kg cyclophosphamide for four days prior to infection. C. neoformans was then cultured in YPDA broth media to mid-log phase. […] Fungal pellets were resuspended in the same buffer, and the optical density (OD) value was adjusted to 4 × 10^7 CFU/mL. A volume of 200 µL of the fungal solution was i.p. injected into immunocompromised mice (n = 4), a total of 8 × 10^6 colony-forming units (CFUs) injected per mouse. Twelve hours post-intraperitoneal inoculation of the fungi, treatment was administered. […] Twelve hours post-treatment, the mice were sacrificed, and blood was collected through retro-orbital bleeding. Organs (lung, liver, kidney, and spleen) were also harvested and divided into two parts. One portion was weighed and placed into a grinding tube with 1 mL of normal saline and then homogenized in a tissue grinder to assess the fungal burden, while fixation of the other portion was performed for the histopathology examination. Following a 5-fold serial dilution in normal saline, 100 µL of the homogenates were seeded on YPDA plates and incubated at 37 °C for 48 h before counting colonies. […]

Molecules are shown by their SMILES. Positions of bridges follow the written chain, without caps; N, C: chain ends. Residues, ends and D or L forms follow the SMILES beside them.

With `CC(C)[C@@H]1NC(=O)[C@H](CCCCN)NC(=O)[C@H](Cc2ccccc2)NC(=O)[C@@H](NC(=O)[C@@H](N)CCC(N)=O)CSSC[C@@H](C(=O)N[C@@H](CO)C(=O)N[C@@H](CCCNC(=N)N)C(=O)N[C@@H](CO)C(N)=O)NC(=O)[C@H](CCCCN)NC(=O)[C@H]([C@@H](C)O)NC(=O)[C@H](Cc2ccccc2)NC(=O)[C@@H]2CSSC[C@H](NC1=O)C(=O)N[C@@H](Cc1ccccc1)C(=O)N[C@@H](CCCNC(=N)N)C(=O)N[C@@H](CCCCN)C(=O)N[C@@H](CCCNC(=N)N)C(=O)N2` [QS18] (H-QCFKVCFRKRCFTKCSRS-NH2; disulfide 2-15, 6-11; N-terminus and C-terminus assumed), the “MIC times lower than that of fluconazole” value in data set [1] is on record as “approximately fourteen”. Moreover, the LD50 at 72 h in data set [2] is 30 mg/kg. Besides, the “LD50 i.p. compared to intravenous administration” value in data set [3] is recorded as “two-fold”. Further, the acute toxicity observation result in data set [3] (intravenous, 10 mg/kg, over 72 hours) is “no signs of toxicity or death”. In addition, the intravenous toxicity result in data set [3] (intravenous, 20 mg/kg and 40 mg/kg) was “lethal effect”. In addition, in data set [4], the “proteolytic stability with chymotrypsin” value was “remained stable in chymotrypsin even after 12 h of incubation”. The “proteolytic stability with trypsin” value in data set [5] is “complete degradation after 1 h”. In addition, the “DiSC3(5) fluorescence (membrane depolarization)” value in [6] is reported as “significant increase in fluorescence”. Further, the “eradication of preformed biofilms” value in [7] (1 × MIC, 48 h preformed biofilm, crystal violet OD600) is recorded as “up to 65%”. Besides, in data set [7] (sub-MIC levels), the eradication of biofilms result was “over 50%”. In data set [8], the “viability of biofilm cells, PI/FDA fluorescence” value is “decreased dose-dependently”. For the same compound, the “tissue morphology, H&E staining” value in data set [9] was “near-normal tissue morphology”.
